# Patent US20090087417A1, “METHODS FOR PROMOTING DOPAMINERGIC NEURONAL DEVELOPMENT BY USING NG4A-SUBFAMILY AND WNT-LIGANDS” (priority 2002, published 2009)
# Experiments:
# Assay type in all cases: cell-based, rat
# [1] = test system: E14.5 ventral mesencephalic precursor cultures; experiment: Number of TH+ neurons in E14.5 ventral mesencephalic precursor cultures; details: increasing concentrations of partially purified Wnt, 3 days
# Experimental: (§1) Ventral mesencephala and cerebral cortices from embryos E13.5-14.5 obtained from timed-mated Sprague-Dawley rats were dissected, mechanically dissociated and plated at a final density of 1×10^5 cells/cm2 on poly-D-lysine coated 12- or 24-well plates in a defined, serum-free medium (N2, consisting of a 1:1 mixture of F12 and DMEM containing insulin (10 ng/ml), transferrin (100 μg/ml), putrescine (100 μM), progesterone (20 nM), selenium (30 nM), glucose (6 mg/ml), and bovine serum albumin (1 mg/ml)). Purified Type 1 astrocytes were obtained from mixed glial cultures derived from the VM or CTX of P1 rats according to a standard protocol (Wagner et al., 1999). After shaking and replating into 12-well plates, astrocytes were grown to confluency in 15% fetal bovine serum-containing media and changed to N2 medium, at which time freshly dissected VM or CTX cells were plated on top of the astrocytes at a density of 1×10^5 cells/cm2. All factors were added once, at the initiation of culture, with the exception of 5-bromodeoxyuridine (BrdU), which was added 4-6 hours prior to fixation. Cultures were maintained in a humidified 5% CO2, 95% air incubator at 37° C. and fixed after given time periods with 4% paraformaldehyde for 45 minutes prior to immunocytochemical analysis.
# B1A fibroblast lines stably overexpressing hemagglutanin-tagged Wnt-1a, 3a, or 5a (Shimizu H., 1997) were grown in standard complete media (DMEM+10% FBS) supplemented with 100 ug/ml G-418. For collection of conditioned media, cells were replated at low density in complete media and allowed to reach 50-75% confluency, at which point cells were washed and media was replaced with serum-free N2 (with 10 μM sodium butyrate) for 24 hours. Conditioned media from sister flasks was then harvested, pooled as lots and stored at −80° C. for up to 2 months. When compared to fresh CM, no loss of activity was observed when using this collection and storage routine. T1A CM was harvested using a similar procedure, with the exception that media was collected after 3 days in vitro.
# For concentration, individual lots of CM were thawed at room temperature, divided into 80 ml aliquots, loaded onto Centricon-Plus 80 columns (Millipore) and concentrated via centrifugation according to the manufacturers instructions. Following concentration, aliquots were re-pooled and frozen at −80 C after a sample was taken for determination of protein content and Western blot analysis. In brief, 20 ug of protein was loaded onto a 10% polyacrylamide mini-gel and run under denaturing conditions at 150 V for approximately 30 minutes. After dry electroblot transfer onto PVDF membranes (Hybond P, Amersham Pharmacia Biotech, Upsalla, Sweden) and pre-incubation for 30 minutes in a blocking buffer consisting of 3% bovine serum albumin in Tris-Buffered Saline with […] Triton-X 100 (TBST), blots were incubated with mouse anti-hemagglutinin (Babco) diluted 1:1000 in TBST overnight at 4 C. After washing, blots were incubated with alkaline phosphatase-coupled goat anti-mouse IgG (Santa Cruz) diluted 1:1000 in TBST for 1 hour at room temperature. Blots were visualized using the Amersham ECF reagent and blue fluorescence quantitated using a Molecular Devices Storm 840 phosphoimager.
# (§2) B1A fibroblast lines were cotransfected with the mFz8CRD-IgG/pRK5 and the pIRES puro 2 (Clontech, BD Bioscience, Erembodegem, Belgium) plasmids, using Lipofectamine Plus reagent (Invitrogen, Lidingo, Sweden) according to the instruction of the manufacturer. Upon selection for puromycin resistance (1 μg/ml Sigma, Stockholm, Sweden), clones were isolated and expanded. A clone overexpressing Fz8CRD 700× (real time RT-PCR analysis) was identified. Harvesting and partial purification of Fz8CRD conditioned media were performed as described previously. In all the blocking experiments performed, the Fz8CRD and B1A control partial purified conditioned medias were used at a final concentration of 125-250 μg/ml. […]
# [2] = test system: E14.5 ventral mesencephalic (VM) cultures; experiment: Proliferating clusters containing TH+ neurons in VM cultures; details: 10 units, 7 days in vitro
# Experimental: as §1, with “All factors were added once, at the initiation of culture, with the exception of 5-bromodeoxyuridine (BrdU), which was added 4-6 hours prior to fixation. Cultures were maintained in a humidified 5% CO2, 95% air incubator at 37° C. and fixed after given time periods with 4% paraformaldehyde for 45 minutes prior to immunocytochemical analysis.” left out
# Only clearly stained cells were counted as positive cells. […] Quantitative immunocytochemical data on individual cells represent means and standard errors of counts obtained by a blinded observer from 10-20 non-overlapping fields (cells) or in the entire well (clusters), in each of 3-4 wells per condition from 3-4 independent experiments, unless stated otherwise. […]
# [3] = test system: VM precursor cultures / Nurr1+ precursor cells; experiment: BrdU incorporation (proliferation) in VM precursor cultures
# Experimental: as §1
# (§3) Fixed cultures were incubated with one of the following antibodies, diluted appropriately in phosphate-buffered saline (PBS) containing 1% bovine serum albumin and 0.3% Triton-X 100: mouse anti-BrdU, 1:50 (DAKO, Denmark), mouse anti-β-tubulin, Type III (TuJ1), 1:250 (Sigma), mouse anti-TH, 1:1000 (Incstar, USA), rabbit anti-TH, 1:250 (PelFreeze); rabbit anti-Nurr1, 1:2000 (gift from Dr. T. Perlmann, Sweden), rabbit anti-Nurr1, 1:1000 (Santa Cruz, USA) or mouse anti-Nurr1, 1:250 (BD Transduction Laboratories, USA), rabbit anti Adh2 1:4000 (gift from Dr. R. Lindahl, South Carolina). Incubations were either carried out at 4° C. overnight, or at room temperature for 1 hour. Both processes yielded similar results. After washing, cultures were incubated for 1-3 hr with appropriate secondary antibodies (biotinylated 1:500; CY2-, FITC-, or rhodamine-coupled horse-anti-mouse IgG 1:100; or goat-anti-rabbit IgG 1:100; all from Vector, USA), in the same dilution buffer. Brightfield immunostaining was visualized with the Vector Laboratory ABC immunoperoxidase kit, using either NovaRed (red), or AEC (red), SG or 3-3′ dimaminobenzidine tetrahydrochloride (DAB 0.5 mg/ml)/nickel chloride (1.6 mg/ml) (gray/black), or VIP (violet) substrates. Double-staining was performed by sequential single staining as described. The order of staining was only critical for BrdU-double labeling, in which case the BrdU procedure was always performed second. […] Photos were acquired with a Zeiss Axioplan 100M microscope and collected with a Hamamatsu camera C4742-95 (with the QED imaging software).
# (§4) Only clearly stained cells were counted as positive cells. Spheres were considered positive if they contained one or more positive cell. Quantitative immunocytochemical data on individual cells represent means and standard errors of counts obtained by a blinded observer from 10-20 non-overlapping fields (cells) or in the entire well (clusters), in each of 3-4 wells per condition from 3-4 independent experiments, unless stated otherwise. For each variable, initial statistical comparisons were performed by a global ANOVA, with multiple factors of dose, time point, treatment and/or region; if significant interactions between treatment and any other variable existed, data were further divided into separate times, doses or regions. Fisher's protected least significant difference was used post hoc to identify specific points at which the treatments differed from controls (or each other) only when significant interactions between factor treatment and other variables occurred. Significance for all tests was assumed at the level of p<0.05. […]
# VM cultures = experiment: TuJ1+ neurons and proliferating clusters, proportion dopaminergic, in VM cultures
# Experimental: as §1, §3, §4
# [4] = test system: ventral mesencephalic Nurr1+ neuronal precursors; experiment: Conversion of VM Nurr1+ precursors into Nurr1+/TH+ dopaminergic neurons (double immunostaining); details: VM cultures; control approximately 50%
# Experimental: as §1, §2
# Only clearly stained cells were counted as positive cells. […]
# [5] = test system: E13.5 primary cultures from the cerebral cortex; experiment: Induction of TH in Nurr1+ E13.5 cerebral cortex primary cultures; details: Wnt ligands or co-culture with P1 astrocytes
# Experimental: as §1, §3
# Only clearly stained cells were counted as positive cells. Spheres were considered positive if they contained one or more positive cell. Quantitative immunocytochemical data on individual cells represent means and standard errors of counts obtained by a blinded observer from 10-20 non-overlapping fields (cells) or in the entire well (clusters), in each of 3-4 wells per condition from 3-4 independent experiments, unless stated otherwise. […]
substance,measurement,setting,value
Wnt-3a,TH+ cell numbers,[1],no effect at doses up to 100 units
same,increase in the number of clusters containing one or more TH+ neurons,[2],not
same,increase in Nurr1 and BrdU double positive precursor cells (mitosis in Nurr1+ population),[3]; 1 day in vitro,3 fold
same,BrdU incorporation in VM precursor cultures,[3]; 3 days in vitro,increased
same,proportion of VM clusters containing dopaminergic neurons,VM cultures; FIG. 3e,less than 10%
same,total number of TuJ1+ neurons,VM cultures; FIG. 3f,did not increase
same,proportion of TH+ (dopaminergic) neurons,VM cultures; FIG. 3g,decreased
same,proportion of Nurr1 positive cells that expressed TH (Nurr1+/TH+),[4],30%
same,proportion of Nurr1 positive cortical cells that expressed TH,[5],virtually no Nurr1 positive cortical cells co-expressed TH
